# According to patent US20250376461A1, “INDAZOLE DERIVATIVES FOR TREATING TRPM3-MEDIATED DISORDERS” (Katholieke Universiteit Leuven, priority 2022, published 2025):
# Biological target: T1, mouse TRPM3α2 (mTRPM3) ion channel (Mus musculus, UniProt J9SQF3)
# T1 construct: expressed in transfected cells; host or cells: flip-in HEK293
# Assay: TRPM3 ion channel driven Ca2+ uptake, Fluo-4 AM assay, mTRPM3alpha2 overexpressing flip-in HEK293 cells stimulated with pregnenolone sulfate (50 μM)
# Type: cell-based
# Conditions: mTRPM3 overexpressing HEK293 cells stimulated with pregnenolone sulfate (50 μM), activity ranges A, B, C
# Description: Monitoring the TRPM3 Ion Channel Driven Ca2+ Uptake.
# In order to monitor the inhibition of the mouse TRPM3α2 (mTRPM3) ion channel by the compounds of the invention, a cellular system making use of an mTRPM3alpha2 or hTRPM3 overexpressing cell line (flip-in HEK293) was used. The TRPM3 channel was stimulated/opened with Pregnenolone sulfate (PS) (50 μM) which results in Ca^2+ influx.
# For mTRPM3, the intracellular Ca^2+ was measured with a Calcium responsive dye, Fluor-4 AM ester (Invitrogen). Cells were cultured until a confluence of 80-90%, washed with Versene (Invitrogen) and detached from the surface by a short incubation with 0.05% Trypsin (Invitrogen). The trypsination process was stopped by the addition of complete cell culture medium (DMEM, glutamax, 10% FCS, NEAA, Pen-Strep). Cells were collected and resuspended in Krebs buffer without Calcium at RT.
# Prior the cell seeding (±2000 cells/well into a black, 384 well plate (Greiner)) the diluted compound was added in the assay plate, together with the PS dissolved in Krebs buffer containing Calcium. […] Directly after cell addition the plates were read on an Envision fluorescence reader (Perkin Elmer) by an Excitation of 485 nm and emission at 535 nm.
# Channel inhibition was calculated compared to a non-PS stimulated control versus a condition stimulated with PS (50 μM) with vehicle. The ability of the compounds of the invention to inhibit this activity was determined as: Percentage inhibition=[1−((RFU determined for sample with test compound present−RFU determined for sample with positive control inhibitor) divided by (RFU determined in the presence of vehicle−RFU determined for sample with positive control inhibitor))]*100.
# The activities of the Example compounds cpd 001-262 tested are depicted in the table below. All tested compounds show an activity in the Fluo-4 AM assay. The activity ranges A, B and C refer to IC50 values in the Fluo-4 AM assay as follows: “A”: IC50<1 μM; “B”: 1 μM≤IC50≤20 μM and “C”: IC50>20 μM.
# T1 sequence (J9SQF3 1-1709 isoform J9SQF3-12): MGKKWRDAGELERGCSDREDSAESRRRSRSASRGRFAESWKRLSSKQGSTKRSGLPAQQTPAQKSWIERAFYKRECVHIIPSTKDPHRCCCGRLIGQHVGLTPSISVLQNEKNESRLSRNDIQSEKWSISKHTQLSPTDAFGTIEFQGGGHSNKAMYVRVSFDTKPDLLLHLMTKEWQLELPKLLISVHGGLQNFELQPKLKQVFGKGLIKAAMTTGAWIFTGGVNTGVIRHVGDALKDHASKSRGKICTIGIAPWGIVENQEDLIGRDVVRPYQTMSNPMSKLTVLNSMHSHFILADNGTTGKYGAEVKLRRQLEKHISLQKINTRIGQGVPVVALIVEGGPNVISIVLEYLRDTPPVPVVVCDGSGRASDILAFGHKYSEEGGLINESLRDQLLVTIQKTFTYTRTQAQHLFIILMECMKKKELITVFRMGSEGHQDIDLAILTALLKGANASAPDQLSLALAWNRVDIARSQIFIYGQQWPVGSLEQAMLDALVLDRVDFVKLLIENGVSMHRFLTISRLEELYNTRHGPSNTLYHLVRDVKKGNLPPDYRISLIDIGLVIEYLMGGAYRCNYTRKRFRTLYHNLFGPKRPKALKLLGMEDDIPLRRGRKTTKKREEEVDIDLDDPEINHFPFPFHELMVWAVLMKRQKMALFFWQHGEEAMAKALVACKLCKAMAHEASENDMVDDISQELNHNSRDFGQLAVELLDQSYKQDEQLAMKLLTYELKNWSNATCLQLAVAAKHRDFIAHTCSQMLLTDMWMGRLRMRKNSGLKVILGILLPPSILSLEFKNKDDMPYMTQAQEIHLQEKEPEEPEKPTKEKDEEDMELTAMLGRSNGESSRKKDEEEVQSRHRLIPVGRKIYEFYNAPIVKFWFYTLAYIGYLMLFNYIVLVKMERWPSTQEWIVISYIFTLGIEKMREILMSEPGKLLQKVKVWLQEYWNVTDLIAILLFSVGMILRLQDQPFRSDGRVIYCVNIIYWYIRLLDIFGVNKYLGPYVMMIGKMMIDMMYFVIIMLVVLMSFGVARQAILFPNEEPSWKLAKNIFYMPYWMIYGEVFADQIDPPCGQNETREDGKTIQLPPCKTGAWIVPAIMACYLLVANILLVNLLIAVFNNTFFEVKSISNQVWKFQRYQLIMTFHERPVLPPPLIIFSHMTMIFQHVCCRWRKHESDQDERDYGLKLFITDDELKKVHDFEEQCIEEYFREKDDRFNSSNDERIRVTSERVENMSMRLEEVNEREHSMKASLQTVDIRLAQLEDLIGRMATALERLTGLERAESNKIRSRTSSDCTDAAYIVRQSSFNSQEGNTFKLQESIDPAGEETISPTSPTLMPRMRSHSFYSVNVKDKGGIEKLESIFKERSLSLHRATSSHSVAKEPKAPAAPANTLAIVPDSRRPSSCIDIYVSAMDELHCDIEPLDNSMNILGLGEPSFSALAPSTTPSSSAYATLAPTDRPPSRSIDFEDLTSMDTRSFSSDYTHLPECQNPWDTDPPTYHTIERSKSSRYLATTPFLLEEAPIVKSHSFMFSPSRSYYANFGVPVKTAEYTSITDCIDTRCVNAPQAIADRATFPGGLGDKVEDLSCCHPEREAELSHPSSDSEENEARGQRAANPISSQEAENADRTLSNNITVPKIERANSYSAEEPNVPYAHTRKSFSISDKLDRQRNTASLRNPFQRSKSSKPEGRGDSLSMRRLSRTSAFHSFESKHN
row,IC50 [nM],Structure (SMILES)
1,> 20000,"Cc1ccc(COc2ccc3nn(C)c(C(=O)NC4(CO)CCNC4=O)c3c2)cn1 (single isomer, unassigned) [Cpd 169 - En1]"
2,< 1000,"Cc1ccc(COc2ccc3nn(C)c(C(=O)NC4(CO)CCNC4=O)c3c2)cn1 (single isomer, unassigned) [Cpd 169 - En2]"
3,1000 to 20000,"Cc1ncsc1COc1ccc2nn(C)c(C(=O)NC3(C(N)=O)CCOC3)c2c1 (single isomer, unassigned) [Cpd 170 -En1]"
4,1000 to 20000,"Cc1ncsc1COc1ccc2nn(C)c(C(=O)NC3(C(N)=O)CCOC3)c2c1 (single isomer, unassigned) [Cpd 170 -En2]"
5,< 1000,"Cn1nc2ccc(OCc3ccccc3F)cc2c1C(=O)NC1(CO)CCNC1=O (single isomer, unassigned) [Cpd 171 -En1]"
6,1000 to 20000,"Cn1nc2ccc(OCc3ccccc3F)cc2c1C(=O)NC1(CO)CCNC1=O (single isomer, unassigned) [Cpd 171 -En2]"
7,> 20000,"COc1ccc2nn(C)c(C(=O)NC(C)(CO)C(N)=O)c2c1 (single isomer, unassigned) [Cpd 172 - En1]"
8,1000 to 20000,"COc1ccc2nn(C)c(C(=O)NC(C)(CO)C(N)=O)c2c1 (single isomer, unassigned) [Cpd 172 - En2]"
9,< 1000,"Cn1nc2ccc(OCC3CCC3)cc2c1C(=O)NC(C)(CO)C(N)=O (single isomer, unassigned) [Cpd 173 - En1]"
10,1000 to 20000,"Cn1nc2ccc(OCC3CCC3)cc2c1C(=O)NC(C)(CO)C(N)=O (single isomer, unassigned) [Cpd 173 - En2]"
11,1000 to 20000,"Cc1ccc(COc2ccc3nn(C)c(C(=O)NC(C)(CO)C(N)=O)c3c2)cn1 (single isomer, unassigned) [Cpd 174 - En1]"
12,< 1000,"Cc1ccc(COc2ccc3nn(C)c(C(=O)NC(C)(CO)C(N)=O)c3c2)cn1 (single isomer, unassigned) [Cpd 174 - En2]"
13,< 1000,"Cn1nc2ccc(OCc3ccccc3C(F)F)cc2c1C(=O)NC1(C(N)=O)CCOC1 (single isomer, unassigned) [Cpd 175 - En1]"
14,1000 to 20000,"Cn1nc2ccc(OCc3ccccc3C(F)F)cc2c1C(=O)NC1(C(N)=O)CCOC1 (single isomer, unassigned) [Cpd 175 - En2]"
15,< 1000,"Cn1nc2ccc(OCc3ccccc3C(F)F)cc2c1C(=O)NC1(CO)CCNC1=O (single isomer, unassigned) [Cpd 176 - En1]"
16,1000 to 20000,"Cn1nc2ccc(OCc3ccccc3C(F)F)cc2c1C(=O)NC1(CO)CCNC1=O (single isomer, unassigned) [Cpd 176 - En2]"
17,< 1000,"Cn1nc2ccc(OCc3cccnc3C(F)(F)F)cc2c1C(=O)NC1(CO)CCNC1=O (single isomer, unassigned) [Cpd 177 - En1]"
18,1000 to 20000,"Cn1nc2ccc(OCc3cccnc3C(F)(F)F)cc2c1C(=O)NC1(CO)CCNC1=O (single isomer, unassigned) [Cpd 177 - En2]"
19,< 1000,"Cn1nc2ccc(OCc3cccnc3C(F)(F)F)cc2c1C(=O)NC1(C(N)=O)CCOC1 (single isomer, unassigned) [Cpd 178 - En1]"
20,< 1000,"Cn1nc2ccc(OCc3cccnc3C(F)(F)F)cc2c1C(=O)NC1(C(N)=O)CCOC1 (single isomer, unassigned) [Cpd 178 - En2]"
21,1000 to 20000,"Cc1ncc(COc2ccc3nn(C)c(C(=O)NC(C)(CO)C(N)=O)c3c2)o1 (single isomer, unassigned) [Cpd 179 - En1]"
22,< 1000,"Cc1ncc(COc2ccc3nn(C)c(C(=O)NC(C)(CO)C(N)=O)c3c2)o1 (single isomer, unassigned) [Cpd 179 - En2]"
23,< 1000,"Cn1nc2ccc(OCc3cccnc3)cc2c1C(=O)NC1(CO)CCNC1=O (single isomer, unassigned) [Cpd 180 - En1]"

row,IC50 [nM],Structure (SMILES)
1,1000 to 20000,"Cn1nc2ccc(OCc3cccnc3)cc2c1C(=O)NC1(CO)CCNC1=O (single isomer, unassigned) [Cpd 180 - En2]"
2,> 20000,"Cc1ccc(COc2ccc3nn(C)c(C(=O)NC(C)(CO)C(N)=O)c3c2)nc1 (single isomer, unassigned) [Cpd 181 - En1]"
3,1000 to 20000,"Cc1ccc(COc2ccc3nn(C)c(C(=O)NC(C)(CO)C(N)=O)c3c2)nc1 (single isomer, unassigned) [Cpd 181 - En2]"
4,< 1000,"Cc1ncsc1COc1ccc2nn(C)c(C(=O)NC(C)(CO)CC(F)F)c2c1 (single isomer, unassigned) [Cpd 182 - En1]"
5,< 1000,"Cc1ncsc1COc1ccc2nn(C)c(C(=O)NC(C)(CO)CC(F)F)c2c1 (single isomer, unassigned) [Cpd 182 - En2]"
6,< 1000,"CNC(=O)C1(NC(=O)c2c3cc(OCc4cccnc4C(F)(F)F)ccc3nn2C)CCOC1 (single isomer, unassigned) [Cpd 183 - En1, 2-methyl-N-[3-(methylcarbamoyl)oxolan-3-yl]-5-{[2-(trifluoromethyl)pyridin-3-yl]methoxy}-2H-indazole-3-carboxamide]"
7,1000 to 20000,"CNC(=O)C1(NC(=O)c2c3cc(OCc4cccnc4C(F)(F)F)ccc3nn2C)CCOC1 (single isomer, unassigned) [Cpd 183 - En2, 2-methyl-N-[3-(methylcarbamoyl)oxolan-3-yl]-5-{[2-(trifluoromethyl)pyridin-3-yl]methoxy}-2H-indazole-3-carboxamide]"
8,1000 to 20000,"Cc1ncsc1COc1ccc2nn(C)c(C(=O)NC(C)(CO)C(=O)N(C)C)c2c1 (single isomer, unassigned) [Cpd 184 - En1]"
9,1000 to 20000,"Cc1ncsc1COc1ccc2nn(C)c(C(=O)NC(C)(CO)C(=O)N(C)C)c2c1 (single isomer, unassigned) [Cpd 184 - En2]"
10,1000 to 20000,"CNC(=O)C(C)(CO)NC(=O)c1c2cc(OCc3scnc3C)ccc2nn1C (single isomer, unassigned) [Cpd 185 - En1, 3-hydroxy-N,2-dimethyl-2-({2-methyl-5-[(4-methyl-1,3-thiazol-5-yl)methoxy]-2H-indazol-3-yl}formamido)propanamide]"
11,< 1000,"CNC(=O)C(C)(CO)NC(=O)c1c2cc(OCc3scnc3C)ccc2nn1C (single isomer, unassigned) [Cpd 185 - En2, 3-hydroxy-N,2-dimethyl-2-({2-methyl-5-[(4-methyl-1,3-thiazol-5-yl)methoxy]-2H-indazol-3-yl}formamido)propanamide]"
12,1000 to 20000,"CN(C)C(=O)C1(NC(=O)c2c3cc(OCc4cccnc4C(F)(F)F)ccc3nn2C)CCOC1 (single isomer, unassigned) [Cpd 186 - En1]"
13,1000 to 20000,"CN(C)C(=O)C1(NC(=O)c2c3cc(OCc4cccnc4C(F)(F)F)ccc3nn2C)CCOC1 (single isomer, unassigned) [Cpd 186 - En2]"
14,> 20000,"Cn1nc2ccc(OCC(F)F)cc2c1C(=O)NC(C)(CO)C(N)=O (single isomer, unassigned) [Cpd 187 - En1]"
15,1000 to 20000,"Cn1nc2ccc(OCC(F)F)cc2c1C(=O)NC(C)(CO)C(N)=O (single isomer, unassigned) [Cpd 187 - En2]"
16,1000 to 20000,"CCn1nc2ccc(OCc3ccccn3)cc2c1C(=O)NC(C)(CO)C(N)=O (single isomer, unassigned) [Cpd 188 - En1, 2-({2-ethyl-5-[(pyridin-2-yl)methoxy]-2H-indazol-3-yl}formamido)-3-hydroxy-2-methylpropanamide]"
17,< 1000,"CCn1nc2ccc(OCc3ccccn3)cc2c1C(=O)NC(C)(CO)C(N)=O (single isomer, unassigned) [Cpd 188 - En2, 2-({2-ethyl-5-[(pyridin-2-yl)methoxy]-2H-indazol-3-yl}formamido)-3-hydroxy-2-methylpropanamide]"
18,1000 to 20000,"Cn1nc2ccc(OCc3cccnc3)cc2c1C(=O)NC(C)(CO)C(N)=O (single isomer, unassigned) [Cpd 190 - En1]"
19,< 1000,"Cn1nc2ccc(OCc3cccnc3)cc2c1C(=O)NC(C)(CO)C(N)=O (single isomer, unassigned) [Cpd 190 - En2]"
20,< 1000,"Cn1nc2ccc(OCc3ccccc3C(F)F)cc2c1C(=O)NC(C)(CO)C(N)=O (single isomer, unassigned) [Cpd 191 - En1]"
21,< 1000,"Cn1nc2ccc(OCc3ccccc3C(F)F)cc2c1C(=O)NC(C)(CO)C(N)=O (single isomer, unassigned) [Cpd 191 - En2]"
22,1000 to 20000,"CN(C)C(=O)C(C)(CO)NC(=O)c1c2cc(OCc3cccnc3C(F)(F)F)ccc2nn1C (single isomer, unassigned) [Cpd 193 - En1, 3-hydroxy-N,N,2-trimethyl-2-[(2-methyl-5-{[2-(trifluoromethyl)pyridin-3-yl]methoxy}-2H-indazol-3-yl)formamido]propanamide]"
